Several values for one entry are separate records, joined by “and”; a condition that tells them apart may be missing. Equal entries are not always repeated. Inconclusive results and toxic doses are left out.

The assay deals with P388 leukemia ip, CD2F1 mice, survival T/C. The experiment in a line: NCI In Vivo Anticancer Drug Screen. Data for tumor model P388 Leukemia (intraperitoneal) in CD2F1 (CDF1) mice. To be noted: endpoint: median survival time, higher = longer survival. The method in brief:
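Mice carrying the transplanted tumor received test compound or vehicle. Survival was recorded in each group, and the value is the treated-group measurement divided by that of the vehicle-treated control group.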

Setting [1] is: dose: 50.0 mg/kg/injection, schedule: Q01DX005 (ip), vehicle: saline with Tween-80.
Setting [2] is: dose: 100.0 mg/kg/injection, schedule: Q01DX005 (ip), vehicle: saline with Tween-80.
The mark [3] stands for this setting: dose: 200.0 mg/kg/injection, schedule: Q01DX005 (ip), vehicle: saline with Tween-80.
Setting [4] is: dose: 60.0 mg/kg/injection, schedule: Q01DX005 (ip), vehicle: saline with Tween-80.
The mark [5] stands for this setting: dose: 100.0 mg/kg/injection, schedule: Q01DX009 (ip), vehicle: saline.
[6] abbreviates: dose: 200.0 mg/kg/injection, schedule: Q01DX009 (ip), vehicle: saline.

`Cc1ccc(C)c(C(=O)CCN(C)C)c1`: the T/C (dose: 15.0 mg/kg/injection, schedule: Q01DX005 (ip), vehicle: saline) was 106 % of control; the T/C (dose: 30.0 mg/kg/injection, schedule: Q01DX005 (ip), vehicle: saline) was 94 % of control; the T/C (dose: 60.0 mg/kg/injection, schedule: Q01DX005 (ip), vehicle: saline) is 99 % of control and 101 % of control.
For `CC(C)(C)OC(=O)NC(CCCCNC=O)C(=O)O` (configuration not stated), the T/C was 95 % of control under setting [1], 96 % of control under setting [2] and 104 % of control under setting [3].
For `Cc1cc(OC(=O)N(C)C)nc(SCC(=O)c2ccc(Cl)cc2)n1`, the T/C by setting is: (dose: 50.0 mg/kg/injection, schedule: Q01DX009 (ip), vehicle: Klucel (hydroxypropylcellulose) (HPC)) 99 % of control; (dose: 100.0 mg/kg/injection, schedule: Q01DX009 (ip), vehicle: Klucel (hydroxypropylcellulose) (HPC)) 103 % of control; (dose: 200.0 mg/kg/injection, schedule: Q01DX009 (ip), vehicle: Klucel (hydroxypropylcellulose) (HPC)) 107 % of control.
Take `CNc1c(C(=O)Nc2ccccc2)c(=O)n(C)c(=O)n1C`: the T/C (dose: 100.0 mg/kg/injection, schedule: Q01DX001 (ip), vehicle: Klucel (hydroxypropylcellulose) (HPC)) was 94 % of control; the T/C (dose: 200.0 mg/kg/injection, schedule: Q01DX001 (ip), vehicle: Klucel (hydroxypropylcellulose) (HPC)) was 92 % of control; the T/C (dose: 400.0 mg/kg/injection, schedule: Q01DX001 (ip), vehicle: Klucel (hydroxypropylcellulose) (HPC)) was 93 % of control.
Turning to `CCNC(=O)CCC(NS(=O)(=O)c1ccccc1)C(=O)O` (configuration not stated), the T/C reads like this: (dose: 100.0 mg/kg/injection, schedule: Q04DX002 (ip), vehicle: Klucel (hydroxypropylcellulose) (HPC)) 103 % of control; (dose: 200.0 mg/kg/injection, schedule: Q04DX002 (ip), vehicle: Klucel (hydroxypropylcellulose) (HPC)) 97 % of control; (dose: 400.0 mg/kg/injection, schedule: Q04DX002 (ip), vehicle: Klucel (hydroxypropylcellulose) (HPC)) 96 % of control.
Consider `COC(=O)NC1=Nc2ccccc2N(C(=O)Oc2ccccc2)S1`, for which the T/C (dose: 50.0 mg/kg/injection, schedule: Q01DX005 (ip), vehicle: acetone) was 100 % of control; the T/C (dose: 100.0 mg/kg/injection, schedule: Q01DX005 (ip), vehicle: acetone) is 100 % of control; the T/C (dose: 200.0 mg/kg/injection, schedule: Q01DX005 (ip), vehicle: acetone) is 107 % of control.
On to `CC[C@@]1(O)C(=O)OCc2c1cc1n(c2=O)Cc2cc3c(OC)cccc3nc2-1`, for which the T/C (dose: 0.39 mg/kg/injection, schedule: Q04DX003 (ip), vehicle: other) is 115 % of control; the T/C (dose: 1.0 mg/kg/injection, schedule: Q01DX009 (ip), vehicle: saline with Tween-80) was 217 % of control; the T/C (dose: 1.5 mg/kg/injection, schedule: Q01DX009 (ip), vehicle: saline with Tween-80) was 181 % of control and 192 % of control; the T/C (dose: 2.25 mg/kg/injection, schedule: Q01DX009 (ip), vehicle: saline with Tween-80) is 100 % of control; the T/C (dose: 3.0 mg/kg/injection, schedule: Q01DX009 (ip), vehicle: saline with Tween-80) was 103 % of control; the T/C (dose: 3.13 mg/kg/injection, schedule: Q04DX003 (ip), vehicle: other) was 191 % of control. In addition, the T/C (dose: 6.25 mg/kg/injection, schedule: Q04DX003 (ip), vehicle: other) is 90 % of control.
For `O=C1C(C2CCCCC2)=C2OCC3COC2(O3)c2ccccc21` (configuration not stated), the T/C was 102 % of control under setting [4]; 105 % of control (dose: 120.0 mg/kg/injection, schedule: Q01DX005 (ip), vehicle: saline with Tween-80); 102 % of control (dose: 240.0 mg/kg/injection, schedule: Q01DX005 (ip), vehicle: saline with Tween-80).
With `O=C(COc1ccc([N+](=O)[O-])cc1)Nc1cccnc1`, the T/C (dose: 50.0 mg/kg/injection, schedule: Q04DX003 (ip), vehicle: saline with Tween-80) was 98 % of control; the T/C (dose: 100.0 mg/kg/injection, schedule: Q04DX003 (ip), vehicle: saline with Tween-80) is 98 % of control; the T/C (dose: 200.0 mg/kg/injection, schedule: Q04DX003 (ip), vehicle: saline with Tween-80) was 99 % of control.
For `CCOC(=O)c1cnc2c(OC)ccc(OC)c2c1Cl`, the T/C is 97 % of control under setting [1], 97 % of control under setting [2] and 99 % of control under setting [3].
In the case of `CCN(CC)CCSc1nnc(-c2ccc3c(c2)OCO3)o1`, the T/C is 99 % of control (dose: 50.0 mg/kg/injection, schedule: Q04DX003 (ip), vehicle: water); 99 % of control (dose: 100.0 mg/kg/injection, schedule: Q04DX003 (ip), vehicle: water); 101 % of control (dose: 200.0 mg/kg/injection, schedule: Q04DX003 (ip), vehicle: water).
Consider `COc1cc2[nH]c3cc(OC)c(OC)cc3c2cc1C`, for which the T/C was 100 % of control (dose: 15.0 mg/kg/injection, schedule: Q01DX005 (ip), vehicle: saline with Tween-80); 96 % of control (dose: 30.0 mg/kg/injection, schedule: Q01DX005 (ip), vehicle: saline with Tween-80); 102 % of control and 86 % of control under setting [4].
As for `Cc1cccc(=N)n1CCC(=O)O`, the T/C under setting [5] was 90 % of control and the T/C under setting [6] is 100 % of control.
As for `COC(=O)C(CCCN)NC(=O)c1ccccc1` (configuration not stated), the T/C (dose: 50.0 mg/kg/injection, schedule: Q01DX005 (ip), vehicle: saline) was 99 % of control; the T/C (dose: 100.0 mg/kg/injection, schedule: Q01DX005 (ip), vehicle: saline) was 92 % of control; the T/C (dose: 200.0 mg/kg/injection, schedule: Q01DX005 (ip), vehicle: saline) was 90 % of control.
Turning to `Cc1ccc(S(=O)(=O)OI(O)c2ccccc2)cc1`, the T/C reads like this: (dose: 50.0 mg/kg/injection, schedule: Q01DX009 (ip), vehicle: water) 108 % of control; (dose: 100.0 mg/kg/injection, schedule: Q01DX009 (ip), vehicle: water) 104 % of control.
For the compound `CCOc1nc2ccc(NC(C)C(=O)N3CCN(CCc4ccccc4)CC3)cc2s1` (configuration not stated), the T/C runs as follows: (dose: 50.0 mg/kg/injection, schedule: Q01DX005 (ip), vehicle: Klucel (hydroxypropylcellulose) (HPC)) 100 % of control; (dose: 100.0 mg/kg/injection, schedule: Q01DX005 (ip), vehicle: Klucel (hydroxypropylcellulose) (HPC)) 100 % of control; (dose: 200.0 mg/kg/injection, schedule: Q01DX005 (ip), vehicle: Klucel (hydroxypropylcellulose) (HPC)) 112 % of control.
With `NC(=O)c1ncn(C2OC(CO)C(O)C2O)c1N` (configuration not stated), the T/C was 106 % of control and 109 % of control (dose: 50.0 mg/kg/injection, schedule: Q01DX009 (ip), vehicle: saline); 98 % of control and 95 % of control under setting [5]; 103 % of control and 108 % of control under setting [6]; 107 % of control and 87 % of control (dose: 400.0 mg/kg/injection, schedule: Q01DX009 (ip), vehicle: saline).
As for `CCC[CH2][Pb]([CH2]CCC)([O]C(C)=O)[O]C(C)=O`, the T/C by setting is: (dose: 1.56 mg/kg/injection, schedule: Q04DX003 (ip), vehicle: saline) 114 % of control; (dose: 3.13 mg/kg/injection, schedule: Q04DX003 (ip), vehicle: saline) 118 % of control; (dose: 6.25 mg/kg/injection, schedule: Q04DX003 (ip), vehicle: saline) 120 % of control.
For `CC[N+](C)(CC)CCNC(=O)Nc1ccc(-c2ccc(NC(=O)NCC[N+](C)(CC)CC)c(OC)c2)cc1OC`, the T/C was 98 % of control (dose: 6.25 mg/kg/injection, schedule: Q01DX009 (ip), vehicle: saline) and 96 % of control (dose: 12.5 mg/kg/injection, schedule: Q01DX009 (ip), vehicle: saline).
As for `Cc1cc(N(CC(C)Br)CC(C)Br)ccc1N=Nc1ccccc1C(=O)O` (configuration not stated), the T/C by setting is: (dose: 6.25 mg/kg/injection, schedule: Q01DX009 (ip), vehicle: saline with Tween-80) 196 % of control; (dose: 12.5 mg/kg/injection, schedule: Q01DX009 (ip), vehicle: saline with Tween-80) 108 % of control; (dose: 12.5 mg/kg/injection, schedule: Q01DX009 (oral), vehicle: saline with Tween-80) 115 % of control; (dose: 50.0 mg/kg/injection, schedule: Q01DX009 (oral), vehicle: saline with Tween-80) 157 % of control; (dose: 100.0 mg/kg/injection, schedule: Q01DX009 (oral), vehicle: saline with Tween-80) 89 % of control.
Take `CNC(=O)n1cnc2ccccc21`: the T/C reads like this: (dose: 100.0 mg/kg/injection, schedule: Q01DX009 (ip), vehicle: saline with Tween-80) 110 % of control and 111 % of control; (dose: 200.0 mg/kg/injection, schedule: Q01DX009 (ip), vehicle: saline with Tween-80) 105 % of control and 118 % of control; (dose: 400.0 mg/kg/injection, schedule: Q01DX009 (ip), vehicle: saline with Tween-80) 120 % of control and 124 % of control.

The values above are taken from PubChem BioAssay AID330 (DTP/NCI, 2004).
